1 substance from US9981037B2, “Combination therapy of beta-glycolipids and antibodies for the treatment of immune-related disorders” (HADASIT MEDICAL RESEARCH SERVICES AND DEVELOPMENT LTD., priority 2008, dated 2018) can be followed below.

One data set relates to healthy human volunteers. Briefly: Clinical and laboratory follow-up, CD3+ counts and HAMA in healthy human volunteers. The data set is classed as in vivo. To be noted: oral. Here is the method: * OKT3 (Orthoclone OKT-3) was purchased from Ortho Biotech Inc. (New Jersey, USA). Antibodies to OKT3 were evaluated on day 30 using the Human Anti-Mouse Antibodies (HAMA)-ELISA kit (MEDAC, Hamburg, Germany).
Healthy males (≥18 years) not on therapy for medical or other illnesses were enrolled in accordance with the guidelines of the Hebrew University-Hadassah Institutional Committee for Human Clinical Trials, and the approval of the Israel Ministry of Health Committee for Human Trials. Of 35 potential study subjects screened 18 met inclusion and exclusion criteria and were randomized to one of the treatment groups.
Nine subjects (3/group) were orally administered 0.2 mg, 1.0 mg or 5.0 mg of OKT3 daily for 5 days and immune parameters measured on days 5, 10 and 30 days (FIG. 12). Six subjects (3/group) received 7.5 mg of beta glucosylceramide in combination with 0.2 mg or 1.0 mg of OKT3 and 3 subjects received GC alone. All subjects were treated with 20 mg of Omeprazole (a proton pump inhibitor) during the 5 days of dosing. […]
All patients underwent a full medical history and physical examination, including review of adverse effects on days 1, 5, 10, and 30, along with complete blood counts, differential, electrolytes, liver and kidney function tests, and lipid profile. C-reactive protein and sedimentation rates were also evaluated. […]

A further data set concerns PBL cells. Put plainly: Cytokine secretion profile of PBL cells stimulated with anti-CD3. Type of data set: in vivo, human. Here is the method:
(§1) Nine subjects (3/group) were orally administered 0.2 mg, 1.0 mg or 5.0 mg of OKT3 daily for 5 days and immune parameters measured on days 5, 10 and 30 days (FIG. 12). Six subjects (3/group) received 7.5 mg of beta glucosylceramide in combination with 0.2 mg or 1.0 mg of OKT3 and 3 subjects received GC alone. All subjects were treated with 20 mg of Omeprazole (a proton pump inhibitor) during the 5 days of dosing. Dosing occurred in the morning before breakfast at the study site following a 8 hours fast.
PBMCs were isolated from blood samples using Ficol Hypaque solution. To measure proliferation, 2×10^5 cells per well were cultured in triplicate in RPMI 1640 medium with 5% FBS (Biological Industries, Israel), 100 units/ml penicillin, 100 µg/ml streptomycin, 1% Glutamine, 1% non essential […], 1% sodium pyruvate and β-mercapto-ethanol (Biological Industries, Israel). Cells were stimulated with pre-coated antibodies (in 200 μl PBS/well):μg/well of anti OKT-3 mAb (Ortho Biotech Inc, New Jersey, USA) or 5 μg/ml soluble anti-CD3 mAb (eBioscience, CA, USA) or 2.5 μg/ml anti-CD28 mAb (R&D systems, MN, USA). One set of the above wells were added nothing while 10 μg of GC was added to a similar set for 72 h in culture at 37° C. with 5% CO2. Supernatants were collected for IL-13, IL-17 and IFN-γ. Enzyme-linked immunosorbent assays for these cytokines were performed according to the manufacturer's protocol (R&D Systems, Minneapolis, Minn.). For TGF-β, 2×10^5 cells per well were cultured in serum free media (Biotarget, Biological Industries, Israel). After collecting the supernatants, 1 µCi [^3H]thymidine (Amersham Biosciences, UK) was added to each well, and cells were harvested 18 h later. Proliferation was measured by scintillation counting.
To investigate the effect of oral OKT3 on the cytokine secretion profile of T cells, PBL cells were stimulated with 5 μg anti-CD3 and the secretion of IFN-γ, IL-17, TGF-β and IL-13 was measured.

For the next data set, the system named is dendritic cells. Put plainly: Expression of IL-23, IL-10 and TGF-β in dendritic cells by rtPCR. Type of data set: in vivo, human. Here is the method: as §1
Frozen PBMCs were used for sorting different cell populations, surface staining, and proliferation assays, and cytokine measurements. Cell sorting was performed by thawing […] PBMCs at room temperature (RT) and washing themed twice in medium at RT in 50-ml tubes in a 10-ml volume at 1,400 rpm. Cells were suspended to 20×10^6/ml and stained with seven colors staining of cells using Fc block, Lin-FITC, CD11c-APC, CD123-PE, CD3-Amcyan, CD4-Alexa700, CD25-PB, and 7-AAD was performed. Compensation controls, including an unstained control, were prepared. All samples were washed with medium and filtered into 15-ml tubes with 2 ml volume each to a total volume of 2 ml. CD4+ effector T cells, CD4+ regulatory T cells, myeloid DCs, and plasmacytoid DCs were sorted. Tubes were washed to get retrieve all sticky cells and spin them at 1,400 rpm. All cell populations were put in 350 μl of RLT 350 ul (lysis buffer), and transferred to eppendorff microtubes, and froze at −70° C. RNA was prepared using Qiagen micro kits (Valencia, Calif., USA) and cDNA was prepared using Applied Biosystems kits (Foster City, Calif., USA). We performed real-time PCR (RT-PCR) for different genes on in regulatory T cells, effector T cells, and DCs was performed.
RT RT-PCR was performed on DC from all patients in all groups. Sorting of DC was performed as described above. Total RNA was isolated from cell pellets using the RNA easy Mini Kit (QIAGENQiagen). RNA was stored at −80° C. First, strand cDNA synthesis was performed for each RNA sample from 0.5-1 μgm of total RNA using Taqman reverse transcription reagents (Applied Biosystems). cDNA was amplified using sequence-specific primers (for IL-23, IL-10, IL-1, IL-6, and TGF-β) and real-time PCR mix (Applied Biosystems) on an ABI7500 cycler. The GAPDH gene was used as an endogenous control to normalize for differences in the amount of total. RNA in each sample. All values were expressed as fold fold-increase or -decrease relative to the expression of GAPDH.
To further investigate the effect of oral OKT3 on the innate immune system, the expression of IL-23, IL-10 and TGF-β in dendritic cells was next measured by rtPCR.

As for “OKT3: murine monoclonal anti-CD3 antibody (Orthoclone OKT-3, Ortho Biotech)”, the “CD3+ lymphocyte counts or modulation of CD3 from the T cell surface” value in the data set on healthy human volunteers is reported as “no decrease”. For the same substance, in the data set on healthy human volunteers (day 30), the “anti-OKT3 (HAMA) antibodies” value is “no subject developed”. In addition, the cytokine secretion findings result in the data set with PBL cells (0.2 mg and 5.0 mg oral, not shown) is given as “similar, though not as consistent findings”. In the data set with PBL cells (1.0 mg oral), the “subjects with decrease in IFN-γ” value is given as “three subjects”, the “subjects with decrease of IL-17” value was “two out of three subjects” and the “subjects with increase of TGF-β” value is listed as “two out of three subjects”. For the same substance, in the data set with PBL cells (1.0 mg oral, not shown), the “subjects with increase of IL-13” value is recorded as “three out of three subjects”. For the same substance, the “subjects with similar findings (IL-10, TGF-β) in dendritic cells” value in the data set with dendritic cells (0.2 mg oral, not shown) is reported as “two out of three subjects”. In addition, in the data set on dendritic cells (1.0 mg oral), the “subjects with decrease in IL-23 in dendritic cells” value is recorded as “all three subjects”, the “subjects with increase in IL-10 in dendritic cells” value is listed as “two out of three subjects” and the “subjects with increase in TGF-β in dendritic cells” value was “one out of three subjects”. Besides, the “effect on dendritic cells” value in the data set on dendritic cells (5.0 mg oral, not shown) is “no effect”.
